Legend:
[1] = system: SCW (PG-PS) induced reactivation arthritis, ankle swelling; assay: streptococcal cell wall (SCW) induced reactivation arthritis assay; assay type: in vivo, Female Lewis rats
Experimental: The assay is a streptococcal cell wall (SCW) induced reactivation arthritis assay. Female Lewis rats were injected intra-articularly with 10 μL of 100 p fraction peptidoglyean polysaccharide (PG-PS) suspended in phosphate buffered saline (PBS). The contralateral joints were injected with PBS as control. Systemic challenge with 100 μg of PG-PS was given via the tail vein 21 days after the initial inoculation. The animals were dosed orally three times a day with pregabalin (3, 10, and 30 mg/kg) on a 12-hour cycle for 72 hours. The first dose was given 1 hour before the systemic challenge.
The volume of the ankles increased by about 0.5 mL within 72 hours. Pregabalin at 10 and 30 mg/kg dose dependently attenuated the increase in edema up to 40% during the 72-hour observation period.

[2] = system: kaolin and carrageenan knee joint arthritis; assay: acute experimental arthritis by kaolin and carrageenan in the knee joint, spinal infusion of pregabalin or its R-isomer; conditions: for PWL (thermal paw withdrawal latency) compared to baseline: 10 mg/mL infused into dorsal horn alone, before induction of arthritis; for thermal hyperalgesia (PWL) at 5.5 hours: 0.9 mg/mL infused into dorsal horn after development of arthritis; for PWL after infusion: 10 mg/mL infused after inflammation of the knee joint; for spontaneous pain (paw posture): both doses (0.9 and 10 mg/mL); for secondary thermal hyperalgesia (PWL) / abnormal paw posture indicative of spontaneous pain / reduction of knee joint swelling compared to aCSF rats: pre-treatment; for secondary thermal hyperalgesia (PWL): 10 mg/mL spinal infusion for 1.5 hours before kaolin and carrageenan, 4 hours post-injection; for abnormal paw posture indicative of spontaneous pain: spinal infusion before induction of arthritis; for reduction of knee joint swelling compared to aCSF rats: spinal infusion for 1.5 hours before induction of arthritis, P<0.05
Experimental: Acute experimental arthritis was induced in rats by injection of kaolin and carrageenan into the knee joint. […] Concomitant with the injury to the joint tissue, both peripheral and central sensitization occurs, which is manifested in the awake rat as hyperalgesia, which can be easily quantified by measuring a reduction in paw withdrawal latencies to a radiant heat source. Both pregabalin and its R-stereoisomer (R-(−)-3-IBG) were administered before inflammation was induced, and after the inflammation was developed.
Thirty-six male Sprague-Dawley rats (235-380 g) were anesthetized with sodium pentobarbital (Nembutal; 50 mg/kg^−1 i.p.). A microdialysis fiber (200 μm o.d., 45000 MW Cut-off, Hospal AN69) was coated with epoxy resin, except for a 2 mm section. A small midline incision was made in the back at the level of the last rib. The muscle was then removed from around the T12 vertebra and a hole drilled in both lateral aspects. The microdialysis fiber was then passed transversely through the dorsal horn of the spinal cord between lumbar segments L4-L6 so that the permeable 2 mm of the fiber lay in the dorsal horn. The microdialysis fiber was connected to PE20 tubing (Becton and Dickson) which was then tunneled under the skin to the nape of the neck. The fiber was stabilized with dental cement. Artificial cerebrospinal fluid (aCSF) was pumped through the tubing at a rate of 5 μL/min for 1 hour before the PE20 was sealed and the animals allowed to recover.
As a measure of thermal hyperalgesia, animals were tested for paw withdrawal to radiant heat. On the day following fiber placement, animals were housed in small lucite cubicles on an elevated glass plate. Radiant heat was applied to the plantar surface of the heel of the hindpaw until the rat lifted the paw. The time at which this occurred was considered the paw withdrawal latency (PWL). Both paws were tested independently at 5-minute intervals, for a total of 5 trials. A mean of these five readings was used as the PWL. […] PWL was measured for a final time 4 hours after arthritis induction. In the post-treatment group, the animals were tested before induction of arthritis in the knee joint (control), 4-hours post-induction, and 1.5 hours after of drug infusion, i.e. 5.5 hours after arthritis induction. A decrease in the PWL to radiant heat in an animal with knee joint inflammation is indicative of secondary hyperalgesia.
The circumference of the knee joint was also measured before injection of kaolin and carrageenan (control) using a flexible tape measure. The extent of guarding of the hindpaw was also noted after arthritis was induced. To quantify these changes, the animals were graded by a subjective pain rating scale (0-5), where: 0 is normal; 1 is curling of the toes; 2 is eversion of the paw; 3 is partial weight bearing; 4 is non-weight bearing and guarding; and 5 is avoidance of any contact with the hindlimb.
Rats were anesthetized briefly with sodium methohexital (Brevital; 60 mg/kg^−1 i.p.) after the control behavioral test (post-treatment group) or after infusion of the drug (pre-treatment group). The knee joint was then injected with 3% kaolin and 3% carrageenan suspended in sterile saline (0.1 mL; pH 7.4). The knee joint was then flexed manually until the rat awoke (approximately 5 minutes).
All GABA analogs were dissolved in an artificial cerebral spinal fluid solution (aCSF) (pH 7.4, adjusted by bubbling with 95% CO2/5% O2) and infused through the spinal cord at 5 μL/min^−1. The animals received either pregabalin, R-(−)-3-IBG, or aCSF.

SMILES	attenuation of the increase in edema ([1]; 10 and 30 mg/kg oral, dose dependent, 72-hour observation period)	Swelling (delta edema, mL) ([1]; Day 22, pregabalin oral 3.0 mg/kg, vehicle group 0.20) [mL]	Swelling (delta edema, mL) ([1]; Day 22, pregabalin oral 10.0 mg/kg, vehicle group 0.20) [mL]	Swelling (delta edema, mL) ([1]; Day 22, pregabalin oral 30.0 mg/kg, vehicle group 0.20) [mL]	Swelling (delta edema, mL) ([1]; Day 23, pregabalin oral 3.0 mg/kg, vehicle group 0.45) [mL]	Swelling (delta edema, mL) ([1]; Day 23, pregabalin oral 10.0 mg/kg, vehicle group 0.45) [mL]	Swelling (delta edema, mL) ([1]; Day 23, pregabalin oral 30.0 mg/kg, vehicle group 0.45) [mL]	Swelling (delta edema, mL) ([1]; Day 24, pregabalin oral 3.0 mg/kg, vehicle group 0.50) [mL]	Swelling (delta edema, mL) ([1]; Day 24, pregabalin oral 10.0 mg/kg, vehicle group 0.50) [mL]	Swelling (delta edema, mL) ([1]; Day 24, pregabalin oral 30.0 mg/kg, vehicle group 0.50) [mL]	PWL (thermal paw withdrawal latency) compared to baseline [2]	thermal hyperalgesia (PWL) at 5.5 hours ([2]; post-treatment)	PWL after infusion ([2]; post-treatment)	spontaneous pain (paw posture) ([2]; post-treatment)	comparison of the isomers in reducing thermal hyperalgesia ([2]; post-treatment, spinal infusion)	secondary thermal hyperalgesia (PWL) [2]	abnormal paw posture indicative of spontaneous pain [2]	reduction of knee joint swelling compared to aCSF rats [2]
CC(C)C[C@H](CN)CC(=O)O [Pregabalin, (S)-3-(aminomethyl)-5-methylhexanoic acid]	up to 40%	0.12	0.04	0.06	0.38	0.25	0.20	0.50	0.31	0.21	did not change PWL	reduced the thermal hyperalgesia	return of the PWL to the control value	spontaneous pain was also reduced	more effective in reducing thermal hyperalgesia than its R-isomer	no secondary thermal hyperalgesia was observed	prevented the development of abnormal paw posture	approximately 30%
CC(C)C[C@@H](CN)CC(=O)O [R-(−)-3-IBG]	–	–	–	–	–	–	–	–	–	–	did not change PWL	reduced the thermal hyperalgesia	return of the PWL to the control value	spontaneous pain was also reduced	–	no secondary thermal hyperalgesia was observed	prevented the development of abnormal paw posture	approximately 30%
